PubChem BioAssay AID540252 (Sanford-Burnham Center for Chemical Genomics, 2011)
Activity calls are given as the source filed them. How the calls were made is not given here.

molecular target: glucose-6-phosphate dehydrogenase-6-phosphogluconolactonase (Plasmodium falciparum 3D7); experiment: inhibition of P. falciparum G6PD activity – biochemical, end-point NADPH detection, orthogonal assay, dose response (AID 540252); conditions: purified PfG6PD enzyme, NADPH direct detection

Row | SMILES | IC50
1 | CCOC(=O)CSc1nnc(NC(=O)c2cccc([N+](=O)[O-])c2)s1 | > 80 µM (inactive)
2 | COc1cc(-c2cc(OC)c(O)c(OC)c2)cc(OC)c1O | > 80 µM (inactive)
3 | COc1ccccc1N1CSC2=C(C#N)C(c3ccc(SC)cc3)CC(=O)N2C1 (configuration not stated) | > 80 µM (inactive)
4 | CCOc1ccccc1C=NNC(=O)CCCCC(=O)NN=Cc1ccccc1OCC | > 80 µM (inactive)
5 | NC1CCc2cc(O)c(O)cc2C1 (configuration not stated) | 27.5 µM
6 | CCSc1nc2cc(S(=O)(=O)N3CCOCC3)ccc2o1 | > 80 µM (inactive)
7 | CC1CCc2c(nc3sc4c(c3c2N)CCCC4)C1 (configuration not stated) | > 80 µM (inactive)
8 | CCN(CC)c1ccc(C(=C2C=CC(=[N+](CC)CC)C=C2)c2ccc(N(CC)CC)cc2)cc1 | 39.6 µM
9 | CCN(CC)c1ccc(C(=C2C=CC(=[N+](CC)CC)C=C2)c2ccccc2)cc1 | > 80 µM (inactive)
10 | COc1ccc(NC2CCCN(Cc3cccc4cnccc34)C2)cc1OC (configuration not stated) | > 80 µM (inactive)
11 | O=C(COC(=O)c1ccc2c(c1[N+](=O)[O-])C(=O)c1ccccc1C2=O)NC1CC1 | > 80 µM (inactive)
12 | CCc1cc(-c2n[nH]c(C)c2-c2nc3ccccc3n2C)c(O)cc1O | > 80 µM (inactive)
13 | O=[N+]([O-])c1ccc(N/N=C/c2ccc(O)c(O)c2O)c(S(=O)(=O)N2CCOCC2)c1 | 47.5 µM
14 | CCOC(=O)c1sc(NC(=O)CSc2nnc(Cc3ccccc3)o2)c(C#N)c1C | > 80 µM (inactive)
15 | CCCN1CCc2cc(O)cc3c2[C@H]1Cc1ccc(O)c(O)c1-3 | > 80 µM (inactive)
16 | COc1cc(CNc2ccc(N3CCCC3)cc2)ccc1OCc1ccccc1F | > 80 µM (inactive)
17 | Clc1ccc2nc(-c3ccc4c(c3)OCO4)cn2c1 | > 80 µM (inactive)
18 | O=C(Cn1sc2ccccc2c1=O)Nc1ccccc1 | 15.6 µM
19 | O=C(NCCCN1CCOCC1)c1sc2cc([N+](=O)[O-])ccc2c1Cl | 49.2 µM

Row | SMILES | IC50
20 | NCCc1cc(O)c(O)cc1O | > 80 µM (inactive)
21 | COc1cccc(CNc2ccc3[nH]c(=O)[nH]c3c2)c1OCc1ccccc1Cl | > 80 µM (inactive)
22 | CC(=O)Nc1cc2c(cc1[N+](=O)[O-])-c1ccccc1C2O (configuration not stated) | 74.5 µM
23 | O=S(=O)(Nc1c(O)ccc2ccccc12)c1ccccc1 | > 80 µM (inactive)
24 | Cc1ccc(-c2csc(NC(=O)c3ccccc3F)c2C(=O)O)cc1 | > 80 µM (inactive)
25 | Cc1ccc(NC(=O)c2cc(N3C(=O)C=CC3=O)ccc2N2CCOCC2)cc1Cl | > 80 µM (inactive)
26 | Cc1ccc(S(=O)(=O)SCCCSS(=O)(=O)c2ccc(C)cc2)cc1 | 38.8 µM
27 | O=C1C=CC(=O)N1CCNc1ncc(C(F)(F)F)cc1Cl | 65.4 µM
28 | O=c1c2cc(C(F)(F)F)ccc2sn1-c1ccccc1 | 26.2 µM
29 | Cc1ccc(/C=C/C(=O)NC2CCCCCCC2)o1 | > 80 µM (inactive)
30 | COc1cccc(-c2c(C(=O)N/N=C/c3ccc(C)o3)nnn2-c2nonc2N)c1 | > 80 µM (inactive)
31 | Cc1cc(C)c(S(=O)(=O)Nc2cc(SCC(=O)O)c(O)c3ccccc23)cc1C | > 80 µM (inactive)
32 | Cc1cccc(OCC(=O)NCC(=O)N/N=C/c2ccccc2)c1 | > 80 µM (inactive)
33 | C=C1C(=O)O[C@@H]2C[C@@H](C)[C@@H]3C=CC(=O)[C@@]3(C)[C@@H](OC(=O)CC(=O)O[C@H]3[C@@H]4C(=C)C(=O)O[C@@H]4C[C@@H](C)[C@@H]4C=CC(=O)[C@]43C)[C@H]12 | > 80 µM (inactive)
34 | COc1ccc(CNC(=O)Cc2cn(C)c3ccccc23)c(OC)c1 | > 80 µM (inactive)
35 | CNCc1ccccc1Sc1cc(O)ccc1O | > 80 µM (inactive)
36 | CN1C(=O)C(N=Nc2ccc([N+](=O)[O-])cc2)SC1=S (configuration not stated) | > 80 µM (inactive)
37 | O=c1c2ccccc2sn1-c1nccs1 | 26.2 µM
